Experiments:
[1] = test system: prognostic liver signature (PLS); assay: cPLS model: reversal of the prognostic liver signature in HCV-infected Huh7.5.1dif cells; assay type: cell-based, human; details: Huh7.5.1dif cells infected with HCV Jc1 for 7 days, treated 3 additional days; GSEA
HRH2/cAMP/PKA axis = assay: PLS assessment upon perturbation of the HRH2/cAMP/PKA axis in Huh7.5.1dif cells; assay type: cell-based, human; details: histamine 10 μM + nizatidine 10 μM, 48 hours
Experimental: Histamine, 8-CPT, cAMP and H89 Treatment. Huh7.5.1^dif cells were cultured in DMEM containing 1% FBS and 1% DMSO and incubated with histamine (10 μM) or histamine+nizatidine (10 μM) for 48 hours. Fresh medium containing histamine was replenished every 12 hours. For 8-CPT cAMP and H89, Huh7.5.1^dif cells cultured in DMEM 1% DMSO and 1% FBS were incubated with 8-CPT cAMP (100 μM), H89 (1 μM) or DMSO as a control for 48 hours. Fresh medium containing 8-CPT cAMP was replenished every 12 hours.
Transcriptomic Analysis and PLS Calculation. Gene expression profiling and the 32 gene PLS 32 profiling were performed using 250-500 ng total RNA by using either nCounter Digital Analyzer system (NanoString) or the HumanHT-12 beadarray (Illumina) for the time-course experiments. PLS gene expression was normalized according to 6 housekeeping gene expression using GenePattern genomic analysis toolkits (Hoshida, PLOS ONE, 2010, 5: e15543; Peck et al., Genome Biol., 2006, 7: R61; Reich et al., Nature Genet., 2006, 38: 500-501). Induction or suppression of PLS risk signature was determined as previously reported by using Gene Set Enrichment Analysis (GSEA), implemented in GenePattern genomic analysis toolkits (Hoshida, PLOS ONE, 2010, 5: e15543; Peck et al., Genome Biol., 2006, 7: R61; Reich et al., Nature Genet., 2006, 38: 500-501). PLS was always determined by using CTRL cells as references. Results are presented as simplified heatmaps showing the classification of PLS global status as poor or good prognosis and the significance of induction/suppression of PLS genes (log 10 of false discovery rate (FDR) values). For each experiment, heatmaps show: in the upper part: the classification of PLS global status as poor (orange) or good (green) prognosis, and in the bottom part: the significance of induction (red) or suppression (blue) of PLS poor- or good-prognosis genes. Global status corresponds to the difference between low risk- and high risk-gene expression. The statistic tests, normalized enrichment score (NES) and FDR values are provided for each PLS experiment (poor- and good-prognosis genes variation and global status) in the Source Data file.

liver macrophages = assay: scRNA-Seq of CD45+ leucocytes from patient liver tissue treated with nizatidine; assay type: cell-based, human
Experimental: Single-Cell RNA-Seq Analyses of Patient Liver Tissues. Human cells were dissociated from HCC patient liver tissues. Fresh or cryopreserved tissues were minced into 2 to 3 mm pieces and incubated with collagenase (0.5 mg/mL) for 30 minutes at 37° C. Digested tissues were filtered through a sterile nylon mesh to separate the dispersed cells from tissue fragments and washed with Hanks' Balanced Salt Solution (HBSS). Cells were then centrifuged at 600×g for 5 minutes at 4° C. Leucocytes CD45^+ cells were separated from other cell types by flow cytometry using SH800 cell sorter (Sony). Briefly, 500,000 cells per condition were stained with human CD45 specific antibody. Living cells were selected using Zombie green staining according to manufacturer's instructions. Data were acquired using the Sony Cell Sorter Software. Cells were then cultured in MammoCultTM medium and treated with nizatidine 50 μM or DMSO vehicle control. Two days after treatment, single cells were sorted into 384 well cell capture plates (Single Cell Discovery, website: www.scdiscoveries.com) using SH800 cell sorter (Sony). The plates contain mineral oil and droplets of poly-A primers, containing a cell-specific barcode and a unique molecular identifier (UMI), enabling to distinguish the well-specific (and cell-specific) mRNA molecules. scRNA-Seq was performed by Single-Cell Discoveries B.V. using SORT-seq protocol (Muraro et al., Pancreas Cell Syst., 2016, 3: 385-394, e3). Single Cell RNA-Seq Profiling of Human Cells. scRNA-Seq analysis of patient-derived liver tissue was assessed using R version 3.5.3 with package “[…]” for clusterization, cluster analysis and DEG calculation, as previously described (Aizarani et al., Nature; 2019, 572: 199-204).

[2] = test system: tumor associated macrophages (TAMs); assay: IL6 expression in M1-polarized tumor associated macrophages from patient HCCs; assay type: cell-based, human; details: patient-derived tumor macrophages
Experimental: FIG. 5. Effect of Nizatidine and HRH2 KO on Cytokine Expression in a Cell Culture Model for M1 Macrophages. (A) Representative picture of differentiated macrophages. To generate macrophage-like cells (MO), THP-1 cells were treated with PMA for 24 hours. To generate M1-polarized THP-1 macrophages, THP-1 cells were treated with PMA plus LPS and IFNγ. M1-polarized THP-1 were treated with nizatidine for 48 hours. (B) Gene expression of different cytokines was measured by qRT-PCR. Results are expressed as mean+s.e.m from 3 independent experiments performed in triplicate. * denotes p<0.05; ** denotes p<0.01; *** denotes p<0.001. (C) Representative picture of M1 differentiated patient-derived Kupffer cells. To generate M1-polarized macrophages, patient Kupffer cells were treated with LPS and IFNγ. (D) Gene expression of different cytokines was measured by qRT-PCR. Results are expressed as mean+s.d. from one experiment performed in duplicate. (E) IL6 expression in M1-polarized tumor associated macrophages (TAMs) isolated from different patient HCCs and treated with nizatidine. Results are expressed as mean+/−SD from one experiment performed in triplicate or quadruplicate. […] KO efficacy was assessed at genetic level by T7 endonuclease assay. […] Right: Pro-inflammatory cytokines and markers expression were analyzed by qRT-PCR (mean+/−SD n=3, one representative experiment out of two is shown).

[3] = patients, after a 300 mg oral dose; cited from earlier work
[4] = GSEA, nizatidine-treated vs CTRL macrophages
[5] = gene-level analysis in macrophages
[6] = nizatidine 50 μM, two days, scRNA-Seq

CNC(=C[N+](=O)[O-])NCCSCc1csc(CN(C)C)n1 [Nizatidine, N-[2-[[[2-[(dimethylamino)methyl]-4-thizaolyl]methyl]thio]ethyl]-N′-methyl-2-nitro-1,1-ethene-diamine]
reversal of the poor prognosis status of the prognostic liver signature (PLS) [1]: PLS-reversing compounds with highest statistical significance
histamine-induced PLS poor-prognosis status (HRH2/cAMP/PKA axis): reversal
IFNγ response and antigen processing and presentation (liver macrophages; [4]): augmenting IFNγ response and antigen processing and presentation
c-Myc pathway expression (liver macrophages; [4]): strong suppression of the c-Myc pathway expression
immunoregulatory macrophage (M2) signature (liver macrophages; [4]): only partially induces the immunoregulatory macrophage (M2) signature
pro-inflammatory and pro-fibrogenic responses (TNFα, IL2 and IL6 signaling pathways) (liver macrophages; [4]): suppresses pro-inflammatory and pro-fibrogenic responses
pro-inflammatory macrophage (M1) signature (liver macrophages; [4]): suppresses the pro-inflammatory macrophage (M1) signature
major histocompatibility complex (MHC) molecules expression (liver macrophages; [5]): increase in major histocompatibility complex (MHC) molecules expression
neutrophil/monocyte chemoattractant and pro-inflammatory cytokine expression (CXCL5, CCL2, CCL5) (liver macrophages; [5]): decrease in neutrophil/monocyte chemoattractant and pro-inflammatory cytokine expression
pro-fibrotic/tumorigenic soluble factor expression (IL6, IL1b, PDGF, MMP9, TNFα) (liver macrophages; [5]): suppression of pro-fibrotic/tumorigenic soluble factor expression
Siglec-10 expression in macrophages (liver macrophages; [6]): decreases expression
macrophage CLEC5A expression (liver macrophages; [6]): decreased macrophage CLEC5A expression
pro-inflammatory cytokine expression (IL6) [2]: direct effect
plasma concentrations [3]: 2000 to 4000 nM

Source: US20230349922A1, “H2 Blockers Targeting Liver Macrophages for the Prevention and Treatment of Liver Disease and Cancer” (Université de Strasbourg, priority 2020, published 2023)
